Test results reported in patent US20080255121A1, “Combination Drug for Treating Autoimmune Disease” (DAINIPPON SUMITOMO PHARMA CO., LTD., priority 2004, published 2008).
“And” between values parts separate entries of the source, which are not always exact repeats. Identical values can stand only once.

Assays:
[1] = test system: collagen-induced arthritis rats; settings: reported in Patent Document 3 and Non-Patent Documents 3 to 5; cited from earlier work
[2] = test system: adjuvant arthritis rats; settings: reported in Patent Documents 3, 4 and Non-Patent Documents 3 to 5; cited from earlier work
[3] = test system: experimental allergic encephalomyelitis mice; assay: Experimental allergic encephalomyelitis, Compound (I); format: in vivo
Source text: The severity of the condition was indicated as a score (disease score) according to the following criteria.
0.5: Slight paralysis of tail
2: Light paralysis of hind paw
3: Medium to intense paralysis of hind paw or light forelimb paralysis
4: Complete paralysis of hind paw or medium to intense paralysis of forelimb
5: Paralysis of four limbs or toward death period
In the prednisolone administered group as a positive control, prednisolone was suspended in 0.5% methylcellulose solution to prepare a liquid of 0.3 mg/ml for administration and 0.1 ml per 10 g mouse weight was orally administered. In a control group, only 0.5% methylcellulose solution was […] administered. The administration was started on the sensitization day and carried out once a day for consecutive 40 days.

[4] = test system: adjuvant-induced arthritis rats; assay: Combination effect on adjuvant-induced arthritis (Example 18); format: in vivo, rat; settings: only Compound (I) 10 mg/kg oral 12 days from day 10
Method: Combination effect with Compound (I) and DMARDs (methotrexate) was examined in the same way as in Example 17.
Administration of a DMARD (methotrexate (0.060 mg/kg or 0.045 mg/kg; 0.5% methylcellulose suspension)) to the rat in which adjuvant-induced arthritis was caused in the same way as in Example 17 was started on the day when the adjuvant was injected and continued once a day for consecutive 21 days. Compound (I) (10 mg/kg) was orally administered singly or in combination once a day for consecutive 12 days from the 10 days after the sensitization. The volume of the left hind paw was measured by water replacement method every other day.

[5] = test system: adjuvant-induced arthritis rats; assay: Combination effect on adjuvant-induced arthritis (Example 19); format: in vivo, rat
Method: Combination effect for rat adjuvant-induced arthritis was examined in the same manner as in Example 17.
The volume of the left hind paw was measured by water replacement method just before the administration and after the last administration, and AUC (the area under the curve formed by plotting the difference of the value at the time of grouping from the value of each time point during the administration period against the time) of the increased volume of the left hind paw was determined. Joint destruction of the right hind paw (injected paw) and the left hind paw (non-injection paw) can be measured by X-ray and this can be also used as the index to evaluate the combination effect.

[6] = test system: adjuvant-induced arthritis rats; assay: Adjuvant-induced arthritis, therapeutic and prophylactic model; format: in vivo, rat
Method: The adjuvant-induced arthritis model is a representative chronic inflammation model caused in rats, and it is widely used for pharmacological evaluation of antiinflammatory drugs and antirheumatic drugs. Accordingly, effects of Compound (I) and Compound (II) were examined in both therapeutic and prophylactic model. In the therapeutic model, the difference of the volume of a hind leg before and after the dosed period was calculated to examine edema suppression effect by the drug administration and the change of edema volume was examined. In the prophylactic model, the volume of a hind paw was measured over time during the dosed period and the effect of the drug for a long term period was examined. Although the hind paw volume or the edema volume was used as the index of efficacy evaluation, the edema volume means the increment from the normal volume of the hind paw which was not sensitized with the adjuvant, and therefore, the both indices can be used as approximately the same meaning.
A liquid paraffin suspension (1 mg/200 μl) of Mycobacterium butyricum (adjuvant) was subcutaneously injected at the tarsal part of the right hind paw of SD or Lewis rats (both male, six-week old) to cause arthritis. In the therapeutic model, 0.5% methylcellulose suspension of Compound (I) or Compound (II) which was prepared so that the dose was 1 ml per 100 g body weight was orally administered once a day for consecutive five days from the 17th day after the injection of the adjuvant. An indomethacin suspension prepared in the similar way was administered as the positive control. The volume of the hind paws was measured respectively for the right and the left by water replacement method just before the administration and in five hours after the last administration and the difference in the values just before the administration and in five hours after the last administration was calculated and assumed as the change in the edema volume. In the prophylatic model, the compounds were administered once a day for consecutive 21 days after the day when the adjuvant was injected. The volume of the right and left hind paws was measured by water replacement method every other day. In the prophylactic model of Compound (II), a suspension of D-penicillamine, an antirheumatic drug, was administered in the same way as a control.

[7] = test system: collagen-induced arthritis mouse; assay: Collagen-induced arthritis in mice; format: in vivo
Method: Efficacy evaluation of Compound (I) was performed using a collagen-induced arthritis in mice as an animal model of rheumatoid arthritis. The collagen-induced arthritis was caused following an ordinary method. That is, 0.1 ml of emulsion was injected to a mouse (DBA/1J, male, Charles River Laboratories Japan) at the base of the tail under etherization as primary immunization. The emulsion was prepared by mixing the same volume of a bovine type II collagen solution (2 mg/ml, Collagen Kenshukai) and Freund Complete Adjuvant (Difco). 0.1 ml of emulsion of the same composition was injected at the base of the tail as booster immunization after three weeks and arthritis was caused. The severity of arthritis was indicated as a score according to the following criteria.
1: Swelling at two or less joints
2: Swelling at three or more joints/Slight redding and edema at limbs
3: Swelling at three or more joints/Moderate redding and edema at limbs
4: Severe redding and edema at limbs/Ankylosis
Evaluation is performed for each limb with 0 to 4 points and therefore the possible maximum score in one individual is 16.
Compound (I) and prednisolone (positive control) were suspended in 0.5% methylcellulose solution and 0.1 ml per 10 g mouse weight was orally administered. In a control group, only 0.5% methylcellulose solution was orally administered. The administration was started with the primary immunization and carried out once a day for consecutive 35 days.

[8] = Dose 20 mg/kg oral once a day 40 days
[9] = Dose 40 mg/kg oral once a day 40 days
[10] = 5 mg/kg oral once a day 35 days

In the case of `C[C@@H](c1ccc(-c2ccccc2)c(F)c1)c1cc(/N=C(/N)N2CCOCC2)on1` [Compound (I), 3-[(1S)-1-(2-fluorobiphenyl-4-yl)ethyl]-5-{[amino(morpholin-4-yl)methylene]amino}isoxazole], the “effects on collagen-induced arthritis rats” value [1] is given as “anti-arthritis effects”, the “effects on adjuvant arthritis rats” value [2] is given as “anti-arthritis effects” and the disease score ([3]; 20, 40, 80 mg/kg oral once a day 40 days, FIG. 13) is given as “suppressed the disease score at any dose”. For the same molecule, the “Death Rate” value [3, 8] was 0/10, the “Onset Rate” value [3, 8] was 8/10 and the “Death Rate” value [3, 9] was 0/10. For the same molecule, the “Onset Rate” value [3, 9] was 7/10, the “Onset Rate” value ([3]; Dose 80 mg/kg oral once a day 40 days) was 8/10 and the “Death Rate” value ([3]; Dose 80 mg/kg oral once a day 40 days, 80 mg/kg) was 1 of 10 and 1/10. The “onset ratio and volume of left hind paw” value [4] was “very little effect”, the “increased volume and onset ratio of left hind paw” value ([5]; only Compound (I) 20 mg/kg oral once a day 17 days) was “edema suppressing effect” and the “increased volume and onset ratio of left hind paw” value ([5]; only Compound (I) 40 mg/kg and 80 mg/kg oral once a day 17 days) was “onset suppressing effect and edema suppressing effect”. For the same molecule, the “p, left hind paw volume (AUC value), Williams's multiple comparison” value ([6]; prophylactic model, 20 mg/kg) was < 0.05, the “hind paw volume / edema volume” value ([6]; prophylactic model, oral once a day for 21 days, Compound (I) 2.5 to 80 mg/kg, Compound (II) 50 mg/kg, FIGS. 8 and 9) was “remarkable edema suppressing effect” and the “change of edema volume of hind paw” value ([6]; therapeutic model, oral once a day for five days from 17th day, Compound (I) 2.5 to 80 mg/kg, Compound (II) 10 to 50 mg/kg, FIGS. 6 and 7) was “remarkable edema suppressing effect”. For the same molecule, the “p, arthritis onset ratio, Fischer's direct probability method with Bonferroni's correction” value [7, 10] was < 0.05, the “p, arthritis score, Shirley-Williams multiple comparison test” value [7, 10] was < 0.05 and the onset of arthritis ([7]; 5 to 80 mg/kg oral once a day 35 days, FIG. 10) was “dose-dependently suppressed”. For the same molecule, the degree of arthritis ([7]; 5 to 80 mg/kg oral once a day 35 days, FIG. 11) was “slight”.
